Data as given in patent EP0877031A1, “TGF-Beta1 derived peptides mimicking the activity of transforming growth factor-Beta1” (INSTITUUT VOOR DIERHOUDERIJ EN DIERGEZONDHEID (ID-DLO), priority 1997, dated 1998).

Assays:
[1] = tested on: Mink lung epithelial cells (Mv 1 Lu); assay: Mv 1 Lu growth inhibition assay, preincubation with peptides followed by a suboptimal quantity of TGF-β1; format: cell-based; settings: 4 h preincubation with peptide, then suboptimal 3.3 x 10^-3 µM TGF-β1, 5 days of incubation
Method: (§1) An assay for TGF-β1 biological activity, bases on Mink lung epithelial cells (Mv 1 Lu), was used for analysis of the biological activity of peptides derived from the human TGF-β1 primary sequence. This assay is based on growth inhibition of Mv 1 Lu cells in presence of TGF-β1. Inhihition of Mv 1 Lu growth is quantified by acid phosphatase activity as a marker for cell growth.
(§2) Mink lung epithelial cells (Mv 1 Lu) were plated in 96-well tissue culture plates (Costar, Cambridge, MA) at 100 cells/well in 100 µl Eagle's MEM supplemented with 20IE/ml penicillin, 1 mg/ml streptomycin, 0.4 mM L-glutamine, 10 mM HEPES and 10% FCS (HyClone, Logan, UT). Plates were incubated at 37°C and 5% CO2 in a humidified incubator for 1.5 h to allow cell attachment. After cell attachment peptides were added in a volume of 50 µl in Eagle's MEM supplemented with 20IE/ml penicillin, 1 mg/ml streptomycin, 0.4 mM L-glutamine, 10 mM HEPES and 10% FCS and titrated with eight threefold dilutions of peptide. The cells were subsequently incubated for 5 days at 37°C and 5% CO2 in a humidified incubator. After incubation cell growth was monitored using acid phosphatase activity as a marker: The plates were washed twice with 200 µl PBS per well and 100 µl of substrate solution (0.1 M sodium acetate, 0,1% Triton X-100, 3.7 mg/ml p-nitrophenyl phosphate, pH 5.5) were added to each well. The plates were then incubated for 1.5 h at 37°C, after which 25 µl of 0.4 M NaOH were added to each well. Acid phosphatase activity was detected by measuring the OD of the substrate solution using an microplate reader at 405 nm.
In this example Mv 1 Lu cells were preincubated with TGF-β1 derived peptides which were titrated in eight threefold dilutions, starting with a peptide quantity of 10-100 µg per well. After 4 h of preincubation a suboptimal quantity of 3.3 x 10^-3 µM TGF-β1. The TGF-β1 (R&D systems, M1) Porcine TGF-β1 is 100% homologue to humam TGF-β1 (Roberts et al. in Handbook of Experimental Pharmacology, Editors Sporn, M.B.; Robers A.B.; Springer Verlag Heidelberg (1990), 95, 419) was added. After 5 days of incubation the wells were tested for acid phosphatase activity.

[2] = tested on: Mink lung epithelial cells (Mv 1 Lu); assay: Mv 1 Lu growth inhibition assay for agonistic TGF activity (peptides alone, acid phosphatase readout); format: cell-based; settings: peptide alone, 5 days of incubation, acid phosphatase activity as marker for cell growth
Method: as §1, §2
In this example, all peptides comprising 12 amino acids prepared as described under the head "Peptide synthesis", were tested in the Mv 1 Lu growth inhibition assay. In this assay peptides were titrated in eight threefold dilutions, starting with a peptide quantity of 10-100 µg per well. After 5 days of incubation the wells were tested for acid phosphatase activity.

CCVRQLYIDFRK
enhanced inhibition of the growth of mink lung epithelial cells when combined with TGF-β1 (synergistic effect) [1]: enhanced inhibition of the growth of the mink lung epithelial cells
growth inhibition of mink lung epithelial cells (TGF agonist activity) [2]: inhibited the growth of mink lung epithelial cells in a similar way as TGF-β1 does

CFSSTEKNCCVR
growth inhibition of mink lung epithelial cells (TGF agonist activity) [2]: inhibited the growth of mink lung epithelial cells in a similar way as TGF-β1 does

EKNCCVRQLYID
growth inhibition of mink lung epithelial cells (TGF agonist activity) [2]: inhibited the growth of mink lung epithelial cells in a similar way as TGF-β1 does

FSSTEKNCCVRQ
growth inhibition of mink lung epithelial cells (TGF agonist activity) [2]: inhibited the growth of mink lung epithelial cells in a similar way as TGF-β1 does

HNPGASAAPCCV
enhanced inhibition of the growth of mink lung epithelial cells when combined with TGF-β1 (synergistic effect) [1]: enhanced inhibition of the growth of the mink lung epithelial cells

KNCCVRQLYIDF
enhanced inhibition of the growth of mink lung epithelial cells when combined with TGF-β1 (synergistic effect) [1]: enhanced inhibition of the growth of the mink lung epithelial cells

LSNMIVRSCKCS
enhanced inhibition of the growth of mink lung epithelial cells when combined with TGF-β1 (synergistic effect) [1]: enhanced inhibition of the growth of the mink lung epithelial cells
growth inhibition of mink lung epithelial cells (TGF agonist activity) [2]: inhibited the growth of mink lung epithelial cells in a similar way as TGF-β1 does

NCCVRQLYIDFR
enhanced inhibition of the growth of mink lung epithelial cells when combined with TGF-β1 (synergistic effect) [1]: enhanced inhibition of the growth of the mink lung epithelial cells
growth inhibition of mink lung epithelial cells (TGF agonist activity) [2]: inhibited the growth of mink lung epithelial cells in a similar way as TGF-β1 does

QHNPGASAAPCC
enhanced inhibition of the growth of mink lung epithelial cells when combined with TGF-β1 (synergistic effect) [1]: enhanced inhibition of the growth of the mink lung epithelial cells
